{"source": "paper PMC3828927", "about": "“Heterotropic Effect of β-lactam Antibiotics on Antioxidant Property of Haptoglobin (2-2)-Hemoglobin Complex” (Iranian Journal of Pharmaceutical Research : IJPR, 2011)", "target": "T1, Hp (2-2)-Hb complex (Homo sapiens, UniProt P68871+P69905)", "T1 construct": "gene HBA1; with Haptoglobin", "T1 sequence (P69905 2-142)": "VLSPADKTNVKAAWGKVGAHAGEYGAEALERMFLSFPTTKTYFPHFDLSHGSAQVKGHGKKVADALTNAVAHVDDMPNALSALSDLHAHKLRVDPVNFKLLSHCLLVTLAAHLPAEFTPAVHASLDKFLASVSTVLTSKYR", "T1 sequence (P68871 2-147)": "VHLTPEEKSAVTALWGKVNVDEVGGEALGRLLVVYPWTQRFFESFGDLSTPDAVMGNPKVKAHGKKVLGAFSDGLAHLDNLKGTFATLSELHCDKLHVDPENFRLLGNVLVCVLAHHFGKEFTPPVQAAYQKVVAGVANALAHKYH", "T1 sequence (P00738 19-160 partner)": "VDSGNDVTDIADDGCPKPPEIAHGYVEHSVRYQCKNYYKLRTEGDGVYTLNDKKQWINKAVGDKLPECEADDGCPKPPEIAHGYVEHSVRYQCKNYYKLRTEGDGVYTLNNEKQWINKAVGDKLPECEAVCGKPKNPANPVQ", "T1 sequence (P00738 162-406 partner)": "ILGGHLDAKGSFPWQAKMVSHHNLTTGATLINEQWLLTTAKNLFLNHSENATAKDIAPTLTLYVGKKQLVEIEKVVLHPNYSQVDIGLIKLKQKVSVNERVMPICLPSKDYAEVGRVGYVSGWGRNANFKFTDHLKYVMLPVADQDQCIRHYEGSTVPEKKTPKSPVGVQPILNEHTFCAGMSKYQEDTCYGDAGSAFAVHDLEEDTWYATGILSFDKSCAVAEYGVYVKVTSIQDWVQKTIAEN", "experiment": "guaiacol peroxidase assay, A470, clearance plot", "assay_type": "biochemical", "details": "activator (heterotropic); binding site not shown; varied H2O2, 0.03 M guaiacol, 64 nM complex, 50 mM phosphate pH 7.5, 37 C"}
{"smiles": "CC1(C)S[C@@H]2[C@H](NC(=O)[C@H](N)c3ccccc3)C(=O)N2[C@H]1C(=O)O", "note": "[ampicillin]", "values": [{"measurement": "% increase in peroxidase activity (CLmax) at 14 μg/mL", "value": "~ 16%"}]}
